In patent US20230355645A1, “PHARMACEUTICAL COMPOSITION” (priority 2020, published 2023):

Legend:
[1] = tested on: IL-6 production by Caco-2 cells; test: Production of IL-6 by Caco-2 cells following incubation with LPS (ELISA); format: cell-based, human; settings: Caco-2, after LPS induction, both doses (3 and 5 μmol/l)
Experimental: (§1) Cells (Caco-2, Ishikawa) were seeded in 6-well plates in culture medium containing MEM (Minimum Essential Medium Eagle) supplemented by 2 mM glutamine, 1% NEAA (Non essential Amino Acid), 10% FBS (Fetal Bovine Serum), penicillin 100 IU/ml and streptomycin 100 ug/ml and allowed to adhere for a minimum of 24 hours and then allowed to grow to confluence. They were then rinsed with PBS (2 ml) and treated with LPS (E. coli) 2 μg/ml in serum-free culture medium, 2 ml per well 3 times after 3 hours. After the last 3 hours of incubation, the test substances (CBD, CBD+HA in serum-free culture medium) were added to the cells and the samples were incubated for another 22 hours. The culture medium was then removed, frozen at −80° C. for downstream determination of pro-inflammatory cytokines (IL-6 and IL-8) by ELISA (Human ELISA Development Kit, Cat. Nos. 900-K16 and 900-K18, PeproTech, Baria, Czech Republic). The results are expressed relative to a control K (cells cultured only with serum-free culture medium), as a percentage of the control, expressed as mean±SEM. The measurement was performed in three independent experiments. KL are cells cultured with LPS. Testing was performed in triplicates.

[2] = especially in solution by exposure to light, atmospheric oxygen and acidic pH; cited from earlier work
[3] = cited from earlier work
[4] = tested on: IL-6 production by Ishikawa cells; test: Production of IL-6 by Ishikawa cells following incubation with LPS (ELISA); format: cell-based, human; settings: after LPS induction, both doses (3 and 5 μmol/l)
Experimental: as §1

[5] = tested on: IL-6 production by Caco-2 cells; settings: Caco-2 model, Couch et al. Clin. Sci. 2017; cited from earlier work
[6] = tested on: Ishikawa endometrial cells; test: MTT test, toxicity of CBD towards Ishikawa; format: cell-based, human; settings: CBD 3 and 5 μmol/l, 24 h incubation
Experimental: (§2) Human Caco-2 intestinal cells and Ishikawa endometrial cells were used in an in vitro study of the effect of cannabidiol (CBD) and sodium hyaluronate. In the first phase of the experiment, the safe concentration of CBD was determined based on the results of MTT measurements, a test for the reduction of 3-(4,5-dimethylthiazol-2-yl)-2,5-diphenyltetrazolium bromide (MTT) to the corresponding formazan. The test was performed according to M. D. Maines, L. G. Costa, D. J. Reed, et al. Current protocols in toxicology. New York: John Wiley & Sons. (1998).
(§3) Cells seeded in a 96-well plate at a concentration of 3×10^4 cells/ml, 100 μl/well, which were allowed to adhere for 24 hours, were subsequently incubated for 24 hours with CBD in a concentration range of 100 to 0.78 μmol/l dissolved in serum-free culture medium containing MEM (Minimum Essential Medium Eagle) supplemented by 2 mM glutamine, 1% NEAA (Non essential Amino Acid), and penicillin 100 IU/ml and streptomycin 100 ug/ml. At the end of the incubation period, 100 μl of MTT mixture (0.5 mg/mL in serum-free culture medium) was added for the period of 2 hours. At the end of the incubation period and aspiration of the MTT mixture, 100 μl of DMSO with NH3 (1%, v/v) were added. The absorbance was measured at 540 nm (INFINITE M200 PRO Tecan, Schoeller). […]

[7] = tested on: IL-8 production by Ishikawa cells; test: Production of IL-8 by Ishikawa cells following incubation with LPS (ELISA); format: cell-based, human; settings: after LPS induction, both doses of CBD
Experimental: as §1

Caco-2 cells = test: MTT test, toxicity of CBD towards Caco-2; format: cell-based, human; settings: CBD 3 and 5 μmol/l, 24 h incubation
Experimental: as §2, §3

[8] = tested on: IL-8 production by Caco-2 cells; test: Production of IL-8 by Caco-2 cells following incubation with LPS (ELISA); format: cell-based, human; settings: Caco-2, after LPS induction, higher dose of CBD
Experimental: as §1

[9] = tested on: Balb/c 3T3-L1 mouse fibroblasts; test: Cytotoxicity assay, neutral red incorporation; format: cell-based; settings: 24 h
Experimental: Balb/c 3T3-L1 mouse fibroblasts (ECACC 86052701) were used in the cytotoxicity assay. The cells were cultured in D-MEM medium (Dulbecco's modification of Eagle's essential medium, Lonza) containing antibiotics (penicillin 100 IU/ml, streptomycin 100 ug/ml), enriched with 10% inactivated calf serum, pH 7.2.
Suppositories prepared according to Example 1 were tested. The positive control (PK) was sodium lauryl sulfate (SLS), the cell control was serum-free culture medium.
The suppository extract was prepared in the ratio of 0.2 g of sample per 1 ml of extracting agent (serum-free D-MEM) according to ČSN EN ISO 10993-12 (2012). The extraction was performed for 24 hours at 37° C., in a closed culture flask under aseptic conditions according to ČSN EN ISO 10993-5 (2012). The resulting 100% extract was further diluted with serum-free culture medium.
Flat bottom tissue culture plates of 8×12 wells were used to culture the cells. The cells were suspended at a concentration of 10^5 cells in 1 ml of the culture medium, inoculating 0.1 ml of the suspension into 1 well. Culture conditions 37° C., 7.5% CO2. Pre-cultivation to obtain a cell culture monolayer was performed 24 hours before exposure to the test material. The cultures were established in quadruplets for the test extracts and for the controls. After 24 hours of precultivation, the culture medium and 0.2 ml of the extract from the test sample, or its serial dilution, respectively. This was followed by culture for 24 hours at 37° C., 7.5% CO2 and staining with neutral red (0.2 ml of neutral red solution per well, incubation for 3 hours, ethanol/acetic acid fixation solution). After completion of the culture, cytotoxicity was determined quantitatively (fluorimetrically) based on the incorporation of neutral red as a vital dye.
The fluorimetric method for determining cytotoxicity is based on the incorporation of a vital dye into living cells and the detection of fluorescence in an excitation (530 nm) and emission filter (590 nm) system using cold light. The degree of cytotoxicity is expressed in % of the detected fluorescence in the culture containing the test extract relative to the control culture in the absence of the test extract. Fluorescence is detected in FSU units of fluorescence intensity. For quantification, the viability of the culture is calculated as follows:
culture viability (%)=(average FSU of the test sample−average FSU of the blank)/(average FSU of the control−average FSU of the blank)
The mean fluorescence values for each group represent the average fluorescence value from all four wells after subtracting the average fluorescence value of the eight wells with fixation solution (blank). The control is serum-free culture medium.

human volunteers = settings: in vivo

## C=C(C)[C@@H]1CCC(C)=C[C@H]1c1c(O)cc(CCCCC)cc1O [CBD, Cannabidiol]
[1]
  IL-6 levels: significant decrease
[2]
  stability: prone to degradation
[3]
  log P: 6-7
[4]
  IL-6 levels: significant decrease
[5]
  increase in IL-6 concentration compared to the original value after induction of inflammation: more than 70%
[6]
  toxicity by MTT values: sub-toxic
[7]
  IL-8 levels: decrease
Caco-2 cells
  toxicity by MTT values: sub-toxic
[8]
  IL-8 concentration: at the same level

## CCCCCCCCCCCCOS(=O)(=O)[O-].[Na+] [PK-SLS, sodium lauryl sulfate]
[9]; Test 1, 1 μg/ml
  Mean fluorescence (FSU): 2743.4 FSU
  Relative to control %: 98.8%
[9]; Test 1, 10 μg/ml
  Mean fluorescence (FSU): 891.1 FSU
  Relative to control %: 32.1%
[9]; Test 1, 20 μg/ml
  Mean fluorescence (FSU): 113.9 FSU
  Relative to control %: 16.0%
[9]; Test 2, 1 μg/ml
  Mean fluorescence (FSU): 3187.8 FSU
  Relative to control %: 98.9%
[9]; Test 2, 10 μg/ml
  Mean fluorescence (FSU): 542.5 FSU
  Relative to control %: 16.8%
[9]; Test 2, 20 μg/ml
  Mean fluorescence (FSU): 326.3 FSU
  Relative to control %: 10.1%
Human volunteers; human
  Total number of reactions, Reaction yes/no: 30/30
Human volunteers
  Reaction yes/no: YES
